Data reported in patent publication US7534456B2, “Agastache rugosa extract and composition containing tilianin isolated and purified from said extract having anti-inflammatory activity and anti-atherogenic activity” (Korea Research Institute of Bioscience and Biotechnology, priority 2001, dated 2009).
Marks after values point to notes of the source that are not given here.

How the values were obtained:
[1] = tested on: ICAM-1 expression for THP-1 cells; assay: Inhibitory activity against TNF-α-induced ICAM-1 expression in THP-1 cells; type: cell-based, human; conditions: 30 μM, TNF-α 10 ng/ml
Protocol: The following is the process of experiment on inhibitory activity against ICAM-1 expression for THP-1 cells.
THP-1 cells were cultured in CO2 incubator (5% CO2, 95% relative humidity, 37° C.) using RPMI-1640 broth (RPMI-1640, Gibco BRL 23400-021, 1.62%; 0.2% NaHCO3; 1% antimicrobial agents with penicillin and streptomycin mixed) with 10% fetal bovine serum (Gibco BRL 26140-079, FBS) added to the culture media. Samples for test were melted in DMSO, diluted with phosphate buffered saline solution (PBS) to below 5% and added to reactive solution by 5%, so as to set the concentration of DMSO with samples melted therein not to exceed 0.25% in the final solution. 200 μl of THP-1 cells (2.5×10^5 cells/ml) was divided into each well of 96-well with addition of 10 μl of solution prepared at constant concentration. After culturing it in 37° C. CO2 incubator for 1 hour, TNF-α (final concentration: 10 ng/ml) was added to induce ICAM-1 expression and it was cultured in CO2 incubator for 16 more hours. The reactive solution was made to isolate nonspecific bonding part by adding 25 μl of glutaraldehyde buffer solution (glutaraldehyde 2.08% in PBS) to set cells at well, washing it with PBST (0.005% tween-20 in PBS) and adding 3% skim milk. […] Then, the inhibition ratio of the expression by samples was calculated after measuring absorbance at 490 nm and ICAM-1 expression of THP-1 cells by TNF-α.

[2] = tested on: atherosclerotic lesion; assay: Inhibitory activity against atherosclerotic lesion in LDLR−/− mice on high cholesterol diet; type: in vivo; conditions: 1.0% in high cholesterol diet, 8 weeks
Excerpt: The process of experiment on inhibitory activity of atherosclerotic lesion described in detail is as follows. Step I) Mouse Breeding and Experiment on Administration of the Extract of […] rugosa to the Mouse […] During the experiment, the mice had free access to water and food. Step II) Measurement of Atherosclerotic Lesion Models After 8 weeks of experiment, the blood was gathered through the eyes of all mice. Then, PBS ([…]) was flowed through the heart and the artery of mice for 10 minutes and subsequently paraformaldehyde was flowed through for 5 minutes. […] Six frozen sections (9 μm each), prepared beginning from the area of artery using microtome maintaining low temperature (-20° C.), were stained with Oil red O and counter-stained with Harris hematoxylin. These stained sections were then quantified by computer-assisted morphometry and the average lesion size was calculated for each animal group. In this manner, inhibitory activity against sample group's lesion according to outbreak of control group's lesion was calculated.

Row | Structure (SMILES) | Inhibitory activity of ICAM-1 expression (%) [1] | Lesion size (μm^2) [2] | Inhibitory activity (%) against atherosclerotic lesion ([2]; vs control group)
1 | C[C@@H]1C[C@H]2[C@@H]3CCC4=CC(=O)C=C[C@]4(C)[C@@]3(F)[C@@H](O)C[C@]2(C)[C@@]1(O)C(=O)CO [Dexamethasone, dexamethasone, reference compound] | 40.1 ± 1.7% |  | 
2 | CC[C@H](C)C(=O)O[C@H]1C[C@@H](C)C=C2C=C[C@H](C)[C@H](CC[C@@H]3C[C@@H](O)CC(=O)O3)[C@H]21 [Lovastatin, lovastatin, reference compound] |  | 291442.0 ± 96927.8 μm^2 | 50.9*** %
